1 molecule from ChEMBL document CHEMBL4014349, “Application of Structure-Based Design and Parallel Chemistry to Identify a Potent, Selective, and Brain Penetrant Phosphodiesterase 2A Inhibitor” (J Med Chem, 2017) can be followed below.

Structures are written as SMILES.

Common to all, as to assay type: ADME, organism-based
Series [1] is described as follows: Drug uptake in mouse brain at […], sc after 30 mins. To be noted: read-out: Drug uptake.
Series [2] in a line: Ratio of unbound concentration in rat brain to plasma at 3 mg/kg, sc after 30 mins. Particulars: brain and plasma, read-out: K(p,uu,brain).
Series [3] is described as follows: Drug uptake in rat brain at 3 mg/kg, sc after 30 mins. Particulars: read-out: Drug uptake.
Series [4] has as its system Plasma. The series can be described thus: Unbound concentration in rat plasma at 3 mg/kg, sc after 30 mins. To be noted: in vivo, 0.5 h.
The subject of series [5] is Brain. The series can be described thus: Unbound concentration in rat brain at 3 mg/kg, sc after 30 mins. To be noted: in vivo, 0.5 h.
In series [6] the test system is Brain. The series can be described thus: Unbound concentration in mouse brain at […], sc after 30 mins. To be noted: in vivo, 0.5 h.
Series [7] relates to Plasma. The series can be described thus: Unbound concentration in mouse plasma at […], sc after 30 mins. To be noted: in vivo, 0.5 h.
Series [8] can be described thus: Drug uptake in mouse plasma at […], sc after 30 mins.
Series [9] in a line: Drug uptake in rat cerebrospinal fluid at 3 mg/kg, sc after 30 mins. To be noted: read-out: Drug uptake.
Series [10] can be described thus: Drug uptake in rat plasma at 3 mg/kg, sc after 30 mins.
Series [11] in a line: Ratio of unbound concentration in mouse brain to plasma at […], sc after 30 mins. To be noted: brain and plasma, read-out: K(p,uu,brain).

Turning to `Cn1ncc(-c2nn(C)c3ncnc(N4CCC4)c23)c1-c1ccc(C(F)(F)F)cc1`, the concentration at 0.5 h was determined as 452 nM in series [1]; 950 nM in series [3]; 798 nM in series [8]; 79.9 nM in series [9]; 776 nM in series [10]. In addition, the Kp uu at 0.5 h turned out to be 0.37 in [2] and 0.27 in [11]. Also, the “Cp(f)” value in series [4] is listed as 248 nM; in [7], 160 nM. Also, the entries for the “Drug uptake(free)” value in [5] and in series [6] were 90.2 nM and 43 nM, respectively.
